Experimental data published in PubChem BioAssay AID330 (DTP/NCI, 2004).
“And” between values parts separate entries of the source, which are not always exact repeats. Equal values may be shown once. Inconclusive results and toxic doses are left out. How the source made its calls: active means survival T/C of 150% or more; inactive means T/C below 125% in these data.

Test system: P388 leukemia ip, CD2F1 mice, survival T/C
Experiment: NCI In Vivo Anticancer Drug Screen. Data for tumor model P388 Leukemia (intraperitoneal) in CD2F1 (CDF1) mice
Settings: endpoint: median survival time, higher = longer survival
Outline: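 Mice carrying the transplanted tumor received test compound or vehicle. Survival was recorded in each group, and the value is the treated-group measurement divided by that of the vehicle-treated control group.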

[1] = dose: 50.0 mg/kg/injection, schedule: Q01DX009 (ip), vehicle: Klucel (hydroxypropylcellulose) (HPC)
[2] = dose: 100.0 mg/kg/injection, schedule: Q01DX009 (ip), vehicle: Klucel (hydroxypropylcellulose) (HPC)
[3] = dose: 200.0 mg/kg/injection, schedule: Q01DX009 (ip), vehicle: Klucel (hydroxypropylcellulose) (HPC)
[4] = dose: 60.0 mg/kg/injection, schedule: Q01DX005 (ip), vehicle: saline with Tween-80
[5] = dose: 100.0 mg/kg/injection, schedule: Q01DX005 (ip), vehicle: saline with Tween-80
[6] = dose: 60.0 mg/kg/injection, schedule: Q01DX005 (ip), vehicle: Klucel (hydroxypropylcellulose) (HPC)
[7] = dose: 120.0 mg/kg/injection, schedule: Q01DX005 (ip), vehicle: Klucel (hydroxypropylcellulose) (HPC)
[8] = dose: 240.0 mg/kg/injection, schedule: Q01DX005 (ip), vehicle: Klucel (hydroxypropylcellulose) (HPC)
[9] = dose: 12.5 mg/kg/injection, schedule: Q01DX009 (ip), vehicle: Klucel (hydroxypropylcellulose) (HPC)
[10] = dose: 25.0 mg/kg/injection, schedule: Q01DX009 (ip), vehicle: Klucel (hydroxypropylcellulose) (HPC)
[11] = dose: 12.5 mg/kg/injection, schedule: Q01DX005 (ip), vehicle: saline

Measured: T/C

COn1nnc2ccc(Cl)cc21
inactive: [1] 99 % of control | [2] 100 % of control | [3] 100 % of control

C[Si](C)(C)O[C@@H]1CCCC1N (some centres undefined)
inactive: [4] 106 % of control | dose: 120.0 mg/kg/injection, schedule: Q01DX005 (ip), vehicle: saline with Tween-80 97 % of control | dose: 240.0 mg/kg/injection, schedule: Q01DX005 (ip), vehicle: saline with Tween-80 105 % of control

C[n+]1c(-c2ccc(/C=N/Nc3n[nH]c(=S)n3/N=C/c3ccc(-c4cn5ccsc5[n+]4C)cc3)cc2)cn2ccsc21
inactive: dose: 1.87 mg/kg/injection, schedule: Q01DX005 (ip), vehicle: saline with Tween-80 101 % of control

O=C(O)C(O)C(O)C(O)C(O)CO.[Mn] (centres undefined)
inactive: dose: 50.0 mg/kg/injection, schedule: Q01DX009 (ip), vehicle: saline with Tween-80 113 % of control

COc1cccc2c1C(=O)c1c(O)c3c(c(O)c1C2=O)CC(OC1CC(N)C(O)C(C)O1)(C(C)=O)CC3OC1CC(N)C(O)C(C)O1 (centres undefined)
inactive: dose: 1.56 mg/kg/injection, schedule: Q01DX009 (ip), vehicle: water 107 % of control | dose: 3.13 mg/kg/injection, schedule: Q01DX009 (ip), vehicle: water 103 % of control | dose: 6.25 mg/kg/injection, schedule: Q01DX009 (ip), vehicle: water 108 % of control | dose: 12.5 mg/kg/injection, schedule: Q01DX009 (ip), vehicle: water 122 % of control

O=C(NC1c2ccccc2Oc2ccccc21)c1ccccc1
inactive: dose: 12.5 mg/kg/injection, schedule: Q04DX003 (ip), vehicle: distilled water + Tween-80 93 % of control | dose: 25.0 mg/kg/injection, schedule: Q04DX003 (ip), vehicle: distilled water + Tween-80 92 % of control | dose: 50.0 mg/kg/injection, schedule: Q04DX003 (ip), vehicle: distilled water + Tween-80 93 % of control | dose: 100.0 mg/kg/injection, schedule: Q04DX003 (ip), vehicle: distilled water + Tween-80 93 % of control

O=[N+]([O-])c1c[nH]n2c([N+](=O)[O-])cnc12
inactive: dose: 6.25 mg/kg/injection, schedule: Q01DX009 (ip), vehicle: other 91 % of control | dose: 12.5 mg/kg/injection, schedule: Q01DX009 (ip), vehicle: other 101 % of control

Cc1cc(Cl)cc2c1NC(=O)C2(O)C/C(=N/NC(=O)CC#N)c1cccc([N+](=O)[O-])c1 (centres undefined)
inactive: [4] 93 % of control | [5] 103 % of control | dose: 200.0 mg/kg/injection, schedule: Q01DX005 (ip), vehicle: saline with Tween-80 101 % of control

CCOC(=O)C1C(c2ccc(N(C)C)cc2)c2cc3c(cc2OC1(C)N1CCCC1)OCO3 (centres undefined)
inactive: [6] 100 % of control | [7] 96 % of control | [8] 93 % of control

CCn1c(C)nc([N+](=O)[O-])c1Sc1ncn[nH]1
inactive: dose: 25.0 mg/kg/injection, schedule: Q01DX005 (ip), vehicle: Klucel (hydroxypropylcellulose) (HPC) 118 % of control | dose: 50.0 mg/kg/injection, schedule: Q01DX005 (ip), vehicle: Klucel (hydroxypropylcellulose) (HPC) 115 % of control and 120 % of control | dose: 100.0 mg/kg/injection, schedule: Q01DX005 (ip), vehicle: Klucel (hydroxypropylcellulose) (HPC) 121 % of control

CC(C)N=Cc1ccccc1O.CC(C)N=Cc1ccccc1O.[Cu]
inactive: dose: 25.0 mg/kg/injection, schedule: Q04DX003 (ip), vehicle: saline with Tween-80 100 % of control | dose: 50.0 mg/kg/injection, schedule: Q04DX003 (ip), vehicle: saline with Tween-80 100 % of control

Cc1n(-c2ccccc2)nn[n+]1C
inactive: [9] 116 % of control and 92 % of control | [10] 101 % of control | [1] 103 % of control and 91 % of control

COc1cc(Br)c(C(=O)Nc2ccccc2)cc1OC
inactive: dose: 25.0 mg/kg/injection, schedule: Q01DX009 (ip), vehicle: other 97 % of control | dose: 50.0 mg/kg/injection, schedule: Q01DX009 (ip), vehicle: other 97 % of control | dose: 100.0 mg/kg/injection, schedule: Q01DX009 (ip), vehicle: other 91 % of control | dose: 200.0 mg/kg/injection, schedule: Q01DX009 (ip), vehicle: other 97 % of control | dose: 400.0 mg/kg/injection, schedule: Q01DX009 (ip), vehicle: other 97 % of control

C[S+](C)CCCNC(=O)c1csc(-c2csc(-c3cscn3)n2)n1
inactive: dose: 6.25 mg/kg/injection, schedule: Q01DX005 (ip), vehicle: saline 104 % of control | [11] 96 % of control

O=c1oc2c(c(=O)n1-c1ccccc1)CC1(CCCCC1)C2
inactive: [1] 103 % of control | [2] 113 % of control | [3] 105 % of control

CN(C)CCC=C1c2ccccc2CCc2ccccc21
inactive: [11] 101 % of control | dose: 25.0 mg/kg/injection, schedule: Q01DX005 (ip), vehicle: saline 103 % of control | dose: 50.0 mg/kg/injection, schedule: Q01DX005 (ip), vehicle: saline 109 % of control and 116 % of control

C(=N[C@H]1CCCC[C@H]1N=Cc1ccc[nH]1)c1ccc[nH]1
inactive: dose: 6.25 mg/kg/injection, schedule: Q01DX005 (ip), vehicle: saline with Tween-80 99 % of control | dose: 12.5 mg/kg/injection, schedule: Q01DX005 (ip), vehicle: saline with Tween-80 101 % of control | dose: 25.0 mg/kg/injection, schedule: Q01DX005 (ip), vehicle: saline with Tween-80 100 % of control | [5] 86 % of control

COc1ccc(CC(C(=O)NN)S(=O)(=O)NC(C)(C)C)cc1OC (centres undefined)
inactive: dose: 100.0 mg/kg/injection, schedule: Q04DX003 (ip), vehicle: Klucel (hydroxypropylcellulose) (HPC) 98 % of control | dose: 200.0 mg/kg/injection, schedule: Q04DX003 (ip), vehicle: Klucel (hydroxypropylcellulose) (HPC) 98 % of control | dose: 400.0 mg/kg/injection, schedule: Q04DX003 (ip), vehicle: Klucel (hydroxypropylcellulose) (HPC) 95 % of control

CS(C)=O.CS(C)=O.CS(C)=O.CS(C)=O.[Cl][Ru][Cl]
inactive: [6] 105 % of control | dose: 100.0 mg/kg/injection, schedule: Q04DX003 (ip), vehicle: saline 97 % of control | [7] 101 % of control | dose: 200.0 mg/kg/injection, schedule: Q04DX003 (ip), vehicle: saline 99 % of control | [8] 107 % of control | dose: 400.0 mg/kg/injection, schedule: Q04DX003 (ip), vehicle: saline 92 % of control

CCCCCCC1(/C=C/c2ccc(Cl)c(Cl)c2)OCCS1 (centres undefined)
inactive: dose: 12.5 mg/kg/injection, schedule: Q01DX009 (ip), vehicle: saline 96 % of control | dose: 25.0 mg/kg/injection, schedule: Q01DX009 (ip), vehicle: saline 104 % of control | dose: 50.0 mg/kg/injection, schedule: Q01DX009 (ip), vehicle: saline 100 % of control and 109 % of control and 95 % of control | dose: 100.0 mg/kg/injection, schedule: Q01DX009 (ip), vehicle: saline 95 % of control | dose: 200.0 mg/kg/injection, schedule: Q01DX009 (ip), vehicle: saline 88 % of control

CC(C)C(=O)N1CCCCCN1C(=O)C(C)C
inactive: dose: 100.0 mg/kg/injection, schedule: Q01DX001 (ip), vehicle: suspension in saline 100 % of control | dose: 200.0 mg/kg/injection, schedule: Q01DX001 (ip), vehicle: suspension in saline 95 % of control | dose: 400.0 mg/kg/injection, schedule: Q01DX001 (ip), vehicle: suspension in saline 94 % of control

C[N+](C)(C)C1(Cc2ccccc2)c2ccccc2-c2ccc(Cl)cc21 (centres undefined)
inactive: [9] 107 % of control | [10] 105 % of control | [1] 108 % of control and 94 % of control
